Measurements taken from ChEMBL document CHEMBL4190401, “Lung cancer and matrix metalloproteinases inhibitors of polyphenols from Selaginella tamariscina with suppression activity of migration” (Bioorg Med Chem Lett, 2018).
Active and inactive are the calls of the source. No cut-off for these calls is given here.

Experiments:
HepG2 = experiment: Cytotoxicity against human HepG2 cells assessed as reduction in cell viability after 48 hrs by MTT assay; type: functional, cell-based; details: HepG2, 48 h
T-24 = experiment: Cytotoxicity against human T24 cells assessed as reduction in cell viability after 48 hrs by MTT assay; type: functional, cell-based; details: T-24, 48 h
[1] = target: 72 kDa type IV collagenase (Homo sapiens, UniProt P08253); experiment: Inhibition of recombinant human MMP2 preincubated for 30 mins followed by McaPro-Leu-Gly-Leu-Dpa-Ala-Arg-NH2 substrate addition measured by fluorescence assay
[2] = target: T1, Matrix metalloproteinase-9 (Homo sapiens, UniProt P14780); experiment: Inhibition of recombinant human MMP9 preincubated for 30 mins followed by McaPro-Leu-Gly-Leu-Dpa-Ala-Arg-NH2 substrate addition measured by fluorescence assay
A549 [3] = experiment: Cytotoxicity against human A549 cells assessed as reduction in cell viability after 48 hrs by MTT assay; type: functional, cell-based; details: A549, 48 h
MGC-803 = experiment: Cytotoxicity against human MGC803 cells assessed as reduction in cell viability after 48 hrs by MTT assay; type: functional, cell-based; details: MGC-803, 48 h
Stromelysin-1 = Stromelysin-1 (Homo sapiens, UniProt P08254); experiment: Inhibition of recombinant human MMP3 preincubated for 30 mins followed by McaPro-Leu-Gly-Leu-Dpa-Ala-Arg-NH2 substrate addition measured by fluorescence assay
A549 [4] = experiment: Induction of apoptosis in human A549 cells assessed as increase in caspase-9 level at 10 to 40 uM after 24 hrs by Western blot method; type: functional, cell-based
A549 [5] = experiment: Induction of apoptosis in human A549 cells assessed as late apoptotic cells at 10 uM after 24 hrs by Annexin V-FITC/propidium iodide staining based flow cytometry (reference value: 2.8%); type: functional
A549 [6] = experiment: Induction of apoptosis in human A549 cells assessed as early apoptotic cells at 20 uM after 24 hrs by Annexin V-FITC/propidium iodide staining based flow cytometry (reference value: 1.2%); type: functional
A549 [7] = experiment: Induction of apoptosis in human A549 cells after 24 hrs by Annexin V-FITC/propidium iodide staining based flow cytometry; type: functional, cell-based
A549 [8] = experiment: Antimigratory activity against human A549 cells assessed as inhibition of wound healing at 10 to 20 uM after 24 hrs by phase contrast microscopic method; type: functional, cell-based
A549 [9] = experiment: Induction of apoptosis in human A549 cells assessed as live cells at 40 uM after 24 hrs by Annexin V-FITC/propidium iodide staining based flow cytometry (reference value: 91.9%); type: functional
A549 [10] = experiment: Induction of apoptosis in human A549 cells at 10 to 40 uM after 24 hrs by acridine orange/ethidium bromide double staining based fluorescence microscopic method; type: functional, cell-based
A549 [11] = experiment: Induction of apoptosis in human A549 cells assessed as increase in Bax level after 24 hrs by Western blot method; type: functional, cell-based
A549 [12] = experiment: Induction of apoptosis in human A549 cells assessed as late apoptotic cells at 20 uM after 24 hrs by Annexin V-FITC/propidium iodide staining based flow cytometry (reference value: 2.8%); type: functional
A549 [13] = experiment: Induction of apoptosis in human A549 cells assessed as early apoptotic cells at 40 uM after 24 hrs by Annexin V-FITC/propidium iodide staining based flow cytometry (reference value: 1.2%); type: functional
A549 [14] = experiment: Induction of apoptosis in human A549 cells assessed as late apoptotic cells at 40 uM after 24 hrs by Annexin V-FITC/propidium iodide staining based flow cytometry (reference value: 2.8%); type: functional
A549 [15] = experiment: Induction of apoptosis in human A549 cells assessed as increase in caspase-3 level after 24 hrs by Western blot method; type: functional, cell-based
A549 [16] = experiment: Induction of apoptosis in human A549 cells assessed as live cells at 20 uM after 24 hrs by Annexin V-FITC/propidium iodide staining based flow cytometry (reference value: 91.9%); type: functional
[17] = target: T1, Matrix metalloproteinase-9; experiment: Binding affinity to MMP9 (unknown origin) by SPR assay
A549 [18] = experiment: Induction of apoptosis in human A549 cells assessed as decrease in Bcl-2 level at 10 to 40 uM after 24 hrs by Western blot method; type: functional, cell-based
A549 [19] = experiment: Induction of apoptosis in human A549 cells assessed as early apoptotic cells at 10 uM after 24 hrs by Annexin V-FITC/propidium iodide staining based flow cytometry (reference value: 1.2%); type: functional
A549 [20] = experiment: Induction of apoptosis in human A549 cells assessed as live cells at 10 uM after 24 hrs by Annexin V-FITC/propidium iodide staining based flow cytometry (reference value: 91.9%); type: functional

T1 sequence (P14780 whole entry): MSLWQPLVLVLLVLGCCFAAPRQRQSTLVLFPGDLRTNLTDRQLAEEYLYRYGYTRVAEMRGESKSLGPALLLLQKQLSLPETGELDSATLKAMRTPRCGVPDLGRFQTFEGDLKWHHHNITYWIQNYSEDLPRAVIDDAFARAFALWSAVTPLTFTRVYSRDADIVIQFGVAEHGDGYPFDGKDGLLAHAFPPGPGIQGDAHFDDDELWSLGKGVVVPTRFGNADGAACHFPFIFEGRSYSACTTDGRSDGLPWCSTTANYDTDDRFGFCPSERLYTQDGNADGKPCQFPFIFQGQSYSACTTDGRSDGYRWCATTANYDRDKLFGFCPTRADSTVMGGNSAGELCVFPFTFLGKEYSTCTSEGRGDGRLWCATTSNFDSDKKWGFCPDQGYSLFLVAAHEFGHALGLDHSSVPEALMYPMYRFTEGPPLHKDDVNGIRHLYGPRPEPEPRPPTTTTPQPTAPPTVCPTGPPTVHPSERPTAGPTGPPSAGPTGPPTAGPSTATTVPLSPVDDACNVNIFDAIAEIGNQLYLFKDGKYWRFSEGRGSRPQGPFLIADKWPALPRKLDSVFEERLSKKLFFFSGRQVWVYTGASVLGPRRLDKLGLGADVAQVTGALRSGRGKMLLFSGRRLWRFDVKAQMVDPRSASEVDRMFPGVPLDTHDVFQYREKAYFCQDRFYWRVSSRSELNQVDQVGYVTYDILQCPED
72 kDa type IV collagenase, sequence (P08253 whole entry): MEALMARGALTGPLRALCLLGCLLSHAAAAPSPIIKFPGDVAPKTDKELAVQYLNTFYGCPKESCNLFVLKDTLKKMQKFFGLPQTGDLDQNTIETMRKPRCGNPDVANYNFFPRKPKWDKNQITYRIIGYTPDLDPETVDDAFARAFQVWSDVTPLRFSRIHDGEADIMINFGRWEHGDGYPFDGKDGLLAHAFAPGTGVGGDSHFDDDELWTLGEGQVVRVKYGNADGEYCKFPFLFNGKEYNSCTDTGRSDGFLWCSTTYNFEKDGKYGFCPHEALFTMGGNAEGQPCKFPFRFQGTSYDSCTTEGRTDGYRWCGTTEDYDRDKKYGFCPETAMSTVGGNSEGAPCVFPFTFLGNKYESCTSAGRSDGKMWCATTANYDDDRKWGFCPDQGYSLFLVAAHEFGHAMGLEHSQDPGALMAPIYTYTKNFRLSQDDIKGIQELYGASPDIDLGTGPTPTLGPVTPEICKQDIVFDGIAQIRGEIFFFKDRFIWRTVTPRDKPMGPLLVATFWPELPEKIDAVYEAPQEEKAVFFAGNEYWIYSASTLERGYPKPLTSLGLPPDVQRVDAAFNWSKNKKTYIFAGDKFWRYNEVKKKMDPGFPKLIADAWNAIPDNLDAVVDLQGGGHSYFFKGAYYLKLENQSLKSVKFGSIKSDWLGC
Stromelysin-1, sequence (P08254 whole entry): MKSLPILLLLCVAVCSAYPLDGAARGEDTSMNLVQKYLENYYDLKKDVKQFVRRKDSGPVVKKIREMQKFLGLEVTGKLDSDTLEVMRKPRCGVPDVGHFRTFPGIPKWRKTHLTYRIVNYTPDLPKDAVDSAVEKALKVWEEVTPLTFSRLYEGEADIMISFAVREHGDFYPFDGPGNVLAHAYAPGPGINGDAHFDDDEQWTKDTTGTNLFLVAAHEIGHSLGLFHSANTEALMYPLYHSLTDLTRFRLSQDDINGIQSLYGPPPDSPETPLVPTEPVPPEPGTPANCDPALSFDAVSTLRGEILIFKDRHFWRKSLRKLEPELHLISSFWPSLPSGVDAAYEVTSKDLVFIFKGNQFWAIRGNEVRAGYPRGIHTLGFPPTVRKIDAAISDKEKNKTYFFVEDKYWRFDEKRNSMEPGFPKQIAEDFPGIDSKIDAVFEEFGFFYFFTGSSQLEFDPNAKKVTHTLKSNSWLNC

Row | IC50 [1] [µM] | IC50 [2] [µM] | IC50 (Stromelysin-1; read-out: IC50) [µM] | SMILES | IC50 (HepG2) [µM] | IC50 (T-24) [µM] | IC50 (A549 [3]) [µM] | IC50 (MGC-803) [µM] | further results
1 | 54.2 | > 100 | 66.1 | O=C(c1ccc(O)cc1)c1cc(-c2ccc(O)cc2)c(-c2ccc(O)cc2)c(-c2ccc(O)cc2)c1 | > 50 | > 50 | > 50 | > 50 | –
2 | > 100 | 37.4 | – | COc1ccc(-c2cc(=O)c3c(O)cc(O)cc3o2)cc1-c1c(O)cc2c(c1O)C(=O)CC(c1ccc(O)cc1)O2 (stereo not given) | > 50 | > 50 | > 50 | > 50 | IC50 (Stromelysin-1): Not Active
3 | – | – | – | CC[C@@]1(O)C(=O)OCc2c1cc1n(c2=O)Cc2cc3cc(O)ccc3nc2-1 [HYDROXYCAMPTOTHECIN] | 3.19 | 11.8 | 1.75 | 6.55 | –
4 | > 100 | 26.1 | 37.3 | COc1ccc(-c2cc(=O)c3c(O)cc(O)cc3o2)cc1-c1c(O)cc2oc(-c3ccc(O)cc3)cc(=O)c2c1O | 26.6 | 25.8 | 25.6 | 21.8 | –
5 | 45.8 | 29.3 | 74.3 | COc1ccc(C2CC(=O)c3c(O)cc(O)cc3O2)cc1-c1c(O)cc(O)c2c(=O)cc(-c3ccc(O)cc3)oc12 (stereo not given) | 35 | 34.9 | 31.2 | 36.5 | –
6 | 35.7 | 25.4 | – | COc1ccc(C2CC(=O)c3c(O)cc(O)cc3O2)cc1-c1c(O)cc2c(c1O)C(=O)CC(c1ccc(O)cc1)O2 (stereo not given) | 28.2 | 27.4 | 27.7 | 26 | IC50 (Stromelysin-1): Not Active
7 | 10.2 | 11.8 | – | O=c1cc(-c2ccc(O)c(-c3c(O)cc4oc(-c5ccc(O)cc5)cc(=O)c4c3O)c2)oc2cc(O)cc(O)c12 [ROBUSTAFLAVONE] | 19.2 | 21.1 | 21.4 | 15.6 | IC50 (Stromelysin-1): Not Active
8 | 85.3 | 41 | 82.6 | O=C(O)c1c(-c2ccc(O)cc2)ccc(CO)c1C#Cc1ccc(O)cc1 | 30.2 | 37.1 | 34.1 | 32.6 | –
9 | 81.2 | 36 | 40.9 | O=C1OCc2ccc(-c3ccc(O)cc3)c(C(=O)c3ccc(O)cc3)c21 | 24.8 | 23.4 | 21.9 | 26.4 | –
10 | 30.3 | 2.58 | > 100 | O=c1cc(-c2ccc(O)c(-c3c(O)cc(O)c4c(=O)cc(-c5ccc(O)cc5)oc34)c2)oc2cc(O)cc(O)c12 [AMENTOFLAVONE] | 9.13 | 10.7 | 8.36 | 9.86 | Activity (A549 [4]): Active; Activity (A549 [5]): 7.9%; Activity (A549 [6]): 9.5%; Activity (A549 [7]): Dose-dependent effect; Activity (A549 [8]): Active; Activity (A549 [9]): 57.2%; Activity (A549 [10]): Active; Activity (A549 [11]): Dose-dependent effect; Activity (A549 [12]): 28.3%; Activity (A549 [13]): 6.4%; Activity (A549 [14]): 34.3%; Activity (A549 [15]): Dose-dependent effect; Activity (A549 [16]): 59%; Kd [17]: 2.18 µM; Activity (A549 [18]): Active; Activity (A549 [19]): 2.5%; Activity (A549 [20]): 86%
11 | > 100 | 10.3 | > 100 | COc1ccc(-c2cc(=O)c3c(O)cc(O)cc3o2)cc1-c1c(O)cc(O)c2c(=O)cc(-c3ccc(O)cc3)oc12 [BILOBETIN] | > 50 | > 50 | > 50 | > 50 | –
12 | > 100 | 24.7 | > 100 | O=C(/C=C(\c1ccccc1)c1c(-c2ccc(O)cc2)cccc1-c1ccc(O)cc1)c1ccc(O)cc1 | > 50 | > 50 | > 50 | > 50 | –
13 | 53.7 | 18.3 | 87.8 | O=C1OC(c2ccc(O)cc2)(c2ccc(O)cc2)c2c(-c3ccc(O)cc3)ccc(CO)c21 | 15.4 | 12.7 | 11 | 13.8 | –
